US10406243B2, “Methods of treatment comprising a polyrotaxane and medicinal composition” (National University Corporation Tokyo Medical and Dental …, priority 2013, dated 2019)

Columns and labels:
[1] = system: NPC1 cells; assay: LC3 and p62 expressions by Western blotting (Test Example 9); type: cell-based, human
Procedure: The expressions of LC3 and p62 in the following cells were assayed by Western blotting as follows.
(§1) The cells were seeded on a 12-well plate (Nunc) (cell count: 1×10^5 cells/well), and incubated at 37° C. under a 5% CO2 atmosphere for one day, followed by the addition of the following samples and another 24-hour incubation.
(§2) After the culturing, the cells were washed with PBS, and then 150 μL of RIPA buffer (Wako) containing 1% protease inhibitor cocktail (Nacalai Tesque) and 1% Phosphatase inhibitor cocktail (Nacalai Tesque) was added, and the cells were lysed by shaking for 30 minutes. The cell lysate was centrifuged for 10 minutes at 15,000 rpm, and the supernatant was collected.
10 μL of the supernatant and 2.5 μL of Laemmli buffer (Bio-Rad) were mixed, and applied to a 12% acrylamide gel. Then, electrophoresis was performed at 150∇ for 45 minutes. Then, proteins were transferred to a polyvinylidene fluoride (PVDF) membrane (Bio-Rad) using trans-blot Turbo Blotting System (Bio-Rad). Then, blocking was carried out with 5% skim milk solution (Wako) for an hour.
After the blocking treatment, PVDF membranes were treated at 4° C. for one day with an antibody against LC3 which is an indicator of autophagy (purchased from MBL), an antibody against p62/SQSTM1 which is a selective autophagy substrate (purchased from MBL), and an anti-β-actin antibody (Sigma-Aldrich), each diluted with 1% skim milk solution.
After three washes with PBS, the PVDF membranes were treated for 1 hour at room temperature with HRP-conjugated goat anti-rabbit IgG diluted in 1% skim milk solution.
After three washes with PBS, the PVDF membranes were treated with Pierce Western Blotting Substrate, and the images were taken with ImageQuant LAS 500 system (GE Healthcare Bioscience).
For comparison, the following cases were also examined in a similar manner: a case where NHDF cells were used and none of the samples were added; a case where NHDF cells were used and Bafilomycin A1 (hereinafter, referred to as “Baf A”) was added instead of the sample; a case where NPC1 cells were used and none of the samples were added; and a case where NPC1 cells were used and Baf A was added instead of the sample.
(§3) Each of the relative expression levels was determined from the intensity of Western blot band. […]

[2] = system: NPC1 cells (human dermal fibroblasts derived from a Niemann-Pick type C disease patient); assay: Accumulation of cholesterol, filipin staining observed by confocal microscope (Test Example 2); type: cell-based; conditions: equivalent to 100 μM of cyclodextrin, 24 hours
Procedure: Normal human dermal fibroblasts (hereinafter, referred to as “NHDF” or “NHDF cells”; obtained from Coriell Institute; number: GM05659) and human dermal fibroblasts derived from a Niemann-Pick type C disease patient (hereinafter, referred to as “NPC1” or “NPC1 cells”; obtained from Coriell Institute; number: GM03123) were used as follows to examine the cellular accumulation of cholesterol.
After the incubation, the cells were fixed with 4% paraformaldehyde, and following the addition of filipin (Polysciences) in PBS adjusted to 100 μg/mL, were allowed to stand for 45 minutes at room temperature. After washing the cells three times with PBS, the localization of cholesterol was observed by using a confocal laser scanning microscope, FluoView FV10i (Olympus). Moreover, the amount of intracellular cholesterol accumulation was determined.
In each image, the part shown in white indicates cholesterol. The amount added of each sample is equivalent to 100 μM of cyclodextrin.

[3] = system: NPC1 cells (human dermal fibroblasts derived from a Niemann-Pick type C disease patient); assay: Quantification of intracellular cholesterol accumulation, Amplex Red Cholesterol Assay Kit (Test Example 2); type: cell-based; conditions: equivalent to 100 μM of cyclodextrin, 24 hours
Procedure: The quantification of the amount of intracellular cholesterol accumulation was carried out as follows.
After the incubation the cells were lysed with cell lysis buffer to obtain cell lysates, and the intracellular cholesterol was determined by Amplex Red Cholesterol Assay Kit (Invitrogen) while the total cellular protein content was determined with Micro BCA Protein Assay Kit (Thermo Fisher Scientific). The total intracellular cholesterol content is shown as total cholesterol content (nmol)/total protein content (mg).
In FIG. 9, in order from the left, the results on the following are shown: “the case where NPC1 cells were used and none of the samples were added (non-treated)”, “the case where NPC1 cells were used and HP-β-CD was added as a sample (HP-β-CD added)”, “the case where NPC1 cells were used and DM-β-CD was added as a sample (DM-β-CD added)”, “the case where NPC1 cells were used and HE-SS-PRX was added as a sample (HE-SS-PRX added)”, “the case where NPC1 cells were used and HE-ace-PRX was added as a sample (HE-ace-PRX added)”, “the case where NPC1 cells were used and HE-PRX was added as a sample (HE-PRX added)”, and “the case where NPC1 cells were used and HE-SS-PRX was added as a sample (HE-SS-PRX added)”, and “the case where NHDF cells were used and none of the samples were added (non-treated)”. The amount added of each sample is equivalent to 100 μM of cyclodextrin.

[4] = system: NPC1 cells; assay: Cholesterol removal effect, dose-response (Test Examples 5, 6, 7-1); type: cell-based, human; conditions: 24 hours, concentration as cyclodextrin
Procedure: Then, the cells were washed twice with phosphate-buffered solution, and 0.25% trypsin-EDTA solution (Gibco) was added to each well to peel the cells. The cells were collected into a 1.5 mL tube, and washed twice with phosphate buffered saline. Then, cell lysis solution (including 50 mM phosphate buffer solution, 500 mM sodium chloride, 25 mM cholic acid, and 0.5% Triton X-100) was added to each tube to lyse the cells.
In each cell lysate, the total cholesterol was quantified by Amplex Red Cholesterol Assay Kit (Invitrogen), and the total protein was quantified by micro BCA Protein Assay Kit (Thermo Fisher Scientific). The total cellular cholesterol content is shown as total cholesterol content (nmol)/total protein content (mg).
Similar assays to Test Example 5 were performed except that the following samples were used in order to investigate how the type of degradable linkage in polyrotaxane influences to cholesterol removal from NPC1.
Similar assays to Test Example 5 were performed except that the following samples were used in order to investigate how the type of functional group introduced into cyclodextrins in polyrotaxane influences to cholesterol removal from NPC1.

[5] = system: NPC disease patient-derived NPC2 mutant dermal fibroblasts; assay: LC3-II expression by Western blotting (Test Example 9); type: cell-based, human; conditions: NPC2-mutated fibroblasts; HP-β-CD 10 mM, HEE-SS-PRX 1 mM
Procedure: (3) NPC disease patient-derived NPC2 mutant dermal fibroblasts (obtained from Coriell Institute; number: GM18455)
as §1, §2
(§4) 10 μL of the supernatant and 2.5 μL of Laemmli buffer (Bio-Rad) were mixed, and applied to a 12% acrylamide gel. Then, electrophoresis was performed at 150∇ for 45 minutes. Then, proteins were transferred to a polyvinylidene fluoride (PVDF) membrane (Bio-Rad) using trans-blot Turbo Blotting System (Bio-Rad). Then, blocking was carried out with 5% skim milk solution (Wako) for an hour. […]
as §3

[6] = system: NPC1 cells; assay: Observation of autolysosome formation, mRFP-EGFP-LC3 (Test Example 10); type: cell-based, human; conditions: 24 hours, HP-β-CD 10 mM, HEE-SS-PRX equivalent to 1 mM cyclodextrin
[7] = system: GM1 gangliosidosis patient-derived dermal fibroblasts; assay: LC3-II expression by Western blotting (Test Example 9); type: cell-based, human; conditions: HP-β-CD 10 mM, HEE-SS-PRX 1 mM
Procedure: (5) GM1 gangliosidosis patient-derived dermal fibroblasts (obtained from Coriell Institute; number: GM03589)
as §1, §2, §4, §3

[8] = system: Npc1-deficient mice (Npc1−/− mice); conditions: cited from earlier work
[9] = system: Fabry disease patient-derived dermal fibroblasts; assay: LC3-II expression by Western blotting (Test Example 9); type: cell-based, human; conditions: HP-β-CD 10 mM, HEE-SS-PRX 1 mM
Procedure: (4) Fabry disease patient-derived dermal fibroblasts (obtained from Coriell Institute; number: GM00107)
as §1, §2, §4, §3

[10] = system: NPC1 cells; assay: Observation of autophagosomes by LC3 immunostaining (Test Example 8); type: cell-based, human; conditions: 24 hours, HP-β-CD 10 mM, HEE-SS-PRX equivalent to 1 mM β-CD
Procedure: NPC1 cells were seeded on a 35 mm glass bottom dish (IWAKI) (cell count: 1.5×10^4 cells/dish), and incubated at 37° C. under a 5% CO2 atmosphere for one day, followed by the addition of the following samples and another 24-hour incubation.
After the culturing, the cells were fixed with 4% paraformaldehyde (Wako) for 10 minutes, treated with 50 μg/ml digitonin solution (Tokyo Chemical Industry) for 5 minutes to permeabilize the plasma membrane, and blocked with 1% BSA/PBS solution for 30 minutes.
The cells were then treated with Rabbit polyclonal anti-LC3 antibody (MBL) diluted to 1:200 with 1% BSA for one day at 4° C. After washing with PBS, the cells were stained with Alexa Fluor 488-conjugated goat anti-rabbit IgG (Abeam) (diluted to 1:1,000 with 1% BSA solution) for 30 minutes. After washing with PBS, the cells were observed by FluoView FV-10i (Olympus).
In FIG. 16E, in order from the left, the results on the following are shown: “the case where NHDF cells were used and none of the samples were added”, “the case where NPC1 cells were used and HP-β-CD was added as a sample (amount added: 10 mM)”, “the case where NPC1 cells were used and […] was added as a sample (amount added: amount equivalent to 1 mM concentration of β-CD on HEE-SS-PRX)”.

[11] = system: NPC1 cells; assay: Fusion of autophagosomes and lysosomes, co-localization of mRFP-LC3 and LAMP1 (Test Example 11); type: cell-based, human; conditions: 24 hours, HP-β-CD 10 mM, HEE-SS-PRX equivalent to 1 mM cyclodextrin
[12] = system: NPC disease patient-derived cells; conditions: cited from earlier work
[13] = NHDF or NPC1 cells, Baf A added instead of the sample

Compound	LC3 level [1, 13]	p62 level [1, 13]	Filipin fluorescence intensity (intracellular cholesterol) [2]	Amount of intracellular cholesterol accumulation (total cholesterol/total protein) [3]	Half maximal effective concentration (ED50) from dose-response curve for cholesterol accumulation [4]	LC3-II level [5]	Number of autolysosomes [6]	Number of autophagosomes [6]	Expression level of p62 ([1]; NPC1 cells, 24 hours, 10 mM)	Expression level of LC3-II ([1]; NPC1 cells, 24 hours, HP-β-CD 0.1 to 10 mM, HEE-SS-PRX 0.01 to 1 mM)	LC3-II level [7]	Amount of cholesterol accumulated in each tissue [8]	Survival [8]	LC3-II level [9]	Number of LC3-positive vesicles in a cell [10]	Co-localization rate of mRFP-LC3 and LAMP1 [11]	Amount of cholesterol in cells [12]
CO/C1=C\C(C)=C\[C@@H](C)[C@@H](O)[C@@H](C)C/C(C)=C/C=C/[C@H](OC)[C@@H]([C@@H](C)[C@@H](O)[C@H](C)[C@@]2(O)C[C@@H](O)[C@H](C)[C@@H](C(C)C)O2)OC1=O [Baf A, Bafilomycin A1]	significant increases	significant increases	–	–	–	–	–	–	–	–	–	–	–	–	–	–	–
COC[C@H]1O[C@@H]2O[C@H]3[C@H](O)[C@@H](OC)[C@@H](O[C@H]4[C@H](O)[C@@H](OC)[C@@H](O[C@H]5[C@H](O)[C@@H](OC)[C@@H](O[C@H]6[C@H](O)[C@@H](OC)[C@@H](O[C@H]7[C@H](O)[C@@H](OC)[C@@H](O[C@H]8[C@H](O)[C@@H](OC)[C@@H](O[C@H]1[C@H](O)[C@H]2OC)O[C@@H]8COC)O[C@@H]7COC)O[C@@H]6COC)O[C@@H]5COC)O[C@@H]4COC)O[C@@H]3COC [DM-β-CD, 2,6-dimethyl-β-cyclodextrin]	–	–	reduced	capable of removing more cholesterol than HP-β-CD	230 µM	–	–	–	–	–	–	–	–	–	–	–	–
Hydroxypropyl β-cyclodextrin [HP-β-CD]	–	–	–	subtle reduction of cholesterol	2590 µM	increase in LC3-II	no change in the number of autolysosomes	increase in the number of autophagosomes	significantly increased	increased the expression of LC3-II in a concentration dependent manner	increase in LC3-II	decreases the amount of cholesterol accumulated in each tissue	extends the survival	increase in LC3-II	further increased counts of LC3-positive vesicles	low	the amount of cholesterol in cells decreases
